Laboratory results as given in patent US10112937B2, “P2X7 modulators and methods of use” (Janssen Pharmaceutica NV, priority 2013, dated 2018).

Tests used:
Assay type in all cases: cell-based
human P2X7 [1] = target: T1, human P2X7 (Homo sapiens (Human), UniProt Q99572); assay: P2X7 antagonism in human PBMCs (IL-1β release after LPS + Bz-ATP, ELISA); settings: human PBMCs; for PBMC 1 μM (% control): test compound 1 μM
human P2X7 [2] = target: T1, human P2X7; assay: Ca2+ flux (FLIPR) in 1321N1 cells expressing recombinant human P2X7;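 also: cells loaded with Calcium-4 dye, preincubated with test compound for 30 min, fluorescence change read 180 s after agonist addition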
Protocol: (§1) P2X7 Antagonism in Recombinant Human P2X7 Cells or Recombinant Rat P2X7 Cells: (a) Ca^2+ Flux and (b) Radioligand Binding
(§2) 1321N1 cells expressing the recombinant human or rat P2X7 channel was cultured in HyQ DME/(HyClone/Dulbecco's Modified Eagle Medium) high glucose supplemented with 10% Fetal Bovine Serum (FBS) and appropriate selection marker. Cells were seeded at a density of 25000 cells/well (96-well clear bottom black walled plates) in 100 μl volume/well. On the day of the experiment, cell plates were washed with assay buffer, containing (in mM): 130 NaCl, 2 KCl, 1 CaCl2, 1 MgCl2, 10 HEPES, 5 glucose; pH 7.40 and 300 mOs. After the wash, cells were loaded with the Calcium-4 dye (Molecular Device) and incubated in the dark for 60 minutes. Test compounds were prepared at 250× the test concentration in neat DMSO. Intermediate 96-well compound plates were prepared by transferring 1.2 μL of the compound into 300 μL of assay buffer. A further 3× dilution occurred when transferring 50 μL/well of the compound plate to 100 μL/well in the cell plate. Cells were incubated with test compounds and dye for 30 minutes. […] The fluorescence change was measured 180 seconds after adding the agonist.

rat P2X7 = rat P2X7 (Rattus norvegicus (Rat), UniProt Q64663); assay: Ca2+ flux (FLIPR) in 1321N1 cells expressing recombinant rat P2X7;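 also: Calcium-4 dye fluorescence change read 180 s after agonist addition, with cells preincubated 30 min with compound and dye in 96-well plates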
rat P2X7, sequence (Q64663 whole entry): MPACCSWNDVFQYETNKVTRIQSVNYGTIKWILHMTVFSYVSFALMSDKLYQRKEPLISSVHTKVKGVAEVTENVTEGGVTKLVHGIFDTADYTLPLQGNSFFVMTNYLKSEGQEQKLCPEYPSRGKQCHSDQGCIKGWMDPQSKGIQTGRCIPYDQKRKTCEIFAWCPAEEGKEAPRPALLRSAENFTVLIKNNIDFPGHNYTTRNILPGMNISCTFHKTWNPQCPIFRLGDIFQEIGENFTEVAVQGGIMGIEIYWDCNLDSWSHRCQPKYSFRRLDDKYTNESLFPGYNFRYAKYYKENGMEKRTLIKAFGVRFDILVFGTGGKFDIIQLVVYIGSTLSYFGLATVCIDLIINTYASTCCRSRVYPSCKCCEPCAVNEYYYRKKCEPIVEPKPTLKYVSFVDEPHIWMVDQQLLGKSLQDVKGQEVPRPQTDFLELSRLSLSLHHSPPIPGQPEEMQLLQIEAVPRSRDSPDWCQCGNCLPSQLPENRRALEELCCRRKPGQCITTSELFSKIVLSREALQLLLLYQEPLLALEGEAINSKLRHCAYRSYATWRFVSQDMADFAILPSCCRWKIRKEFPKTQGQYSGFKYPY
Protocol: as §1, §2

[3] = 1321N1 cells, recombinant human P2X7, 250 μM BzATP
[4] = 1321N1 cells, recombinant rat P2X7, 250 μM BzATP
[5] = 10 μM test compound, LPS + Bz-ATP
[6] = Ca2+ flux, 250 μM BzATP, human P2X7 1321N1 cells
[7] = Ca2+ flux, 250 μM BzATP, rat P2X7 1321N1 cells

T1 sequence (Q99572 whole entry): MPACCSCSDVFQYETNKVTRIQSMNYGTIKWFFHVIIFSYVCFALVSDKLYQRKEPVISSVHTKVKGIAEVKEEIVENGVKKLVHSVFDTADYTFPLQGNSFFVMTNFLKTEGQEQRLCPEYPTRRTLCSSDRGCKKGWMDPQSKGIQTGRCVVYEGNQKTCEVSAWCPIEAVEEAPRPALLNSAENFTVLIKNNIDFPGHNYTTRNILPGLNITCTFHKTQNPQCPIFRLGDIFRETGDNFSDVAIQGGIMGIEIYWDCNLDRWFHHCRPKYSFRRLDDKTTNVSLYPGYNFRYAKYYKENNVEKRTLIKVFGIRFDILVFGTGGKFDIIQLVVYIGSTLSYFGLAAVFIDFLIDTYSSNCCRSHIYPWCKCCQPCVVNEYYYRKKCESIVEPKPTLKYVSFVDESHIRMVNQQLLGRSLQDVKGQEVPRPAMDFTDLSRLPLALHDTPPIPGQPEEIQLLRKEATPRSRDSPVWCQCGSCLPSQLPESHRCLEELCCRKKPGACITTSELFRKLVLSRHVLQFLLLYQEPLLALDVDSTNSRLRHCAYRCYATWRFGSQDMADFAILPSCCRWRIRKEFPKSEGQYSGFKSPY

Row | Structure (SMILES) | PBMC 10 μM (% control) (human P2X7 [1]; test compound 10 μM) | IC50 (human P2X7 [2]; [3]) | IC50 (rat P2X7; [4]) | PBMC 10 μM (% control) (human P2X7 [1]; [5]) | IC50 (human P2X7 [2]; [6]) | IC50 (rat P2X7; [7]) | PBMC 1 μM (% control) (human P2X7 [1])
1 | Cc1cc(-n2nnc3c2CCN(C(=O)c2cc(Cl)cc(C(F)(F)F)c2)[C@@H]3C)ncc1F (single isomer, unassigned) [Example 362, (R*)-(3-chloro-5-(trifluoromethyl)phenyl)(1-(5-fluoro-4-methylpyridin-2-yl)-4-methyl-6,7-dihydro-1H-[1,2,3]triazolo[4,5-c]pyridin-5(4H)-yl)methanone] | 90.2 % control | > 10000 nM | > 10000 nM | – | – | – | –
2 | Cc1cc(-n2nnc3c2CCN(C(=O)c2cc(Cl)cc(C(F)(F)F)c2)[C@H]3C)ncc1F (single isomer, unassigned) [Example 363, (S*)-(3-chloro-5-(trifluoromethyl)phenyl)(1-(5-fluoro-4-methylpyridin-2-yl)-4-methyl-6,7-dihydro-1H-[1,2,3]triazolo[4,5-c]pyridin-5(4H)-yl)methanone] | 63.9 % control | > 10000 nM | > 10000 nM | – | – | – | –
3 | O=C(c1cccc(C(F)(F)F)c1Cl)N1CCc2c(ncn2-c2ccccc2)C1 [Example 2, (2-Chloro-3-(trifluoromethyl)phenyl)(1-phenyl-6,7-dihydro-1H-imidazo[4,5-c]pyridin-5(4H)-yl)methanone] | – | 12.1 nM | 2910 nM | – | – | – | 7.9 % control
4 | CC(C)C1c2ncn(-c3cnccn3)c2CCN1C(=O)c1cccc(C(F)(F)F)c1Cl (centres unmarked) [Example 16, (2-Chloro-3-(trifluoromethyl)phenyl)(4-isopropyl-1-(pyrazin-2-yl)-6,7-dihydro-1H-imidazo[4,5-c]pyridin-5(4H)-yl)methanone] | – | 93.7 nM | 257 nM | – | – | – | 8.5 % control
5 | CCOC(=O)C1c2ncn(-c3ccccc3)c2CCN1C(=O)c1cccc(C(F)(F)F)c1Cl (centres unmarked) [Example 26, Ethyl 5-(2-chloro-3-(trifluoromethyl)benzoyl)-1-phenyl-4,5,6,7-tetrahydro-1H-imidazo[4,5-c]pyridine-4-carboxylate] | – | 7.7 nM | 54.9 nM | – | – | – | 14.0 % control
6 | CCOC(=O)C1c2ncn(-c3cnccn3)c2CCN1C(=O)c1cccc(C(F)(F)F)c1Cl (centres unmarked) [Example 28, Ethyl 5-{[2-chloro-3-(trifluoromethyl)phenyl]carbonyl}-1-pyrazin-2-yl-4,5,6,7-tetrahydro-1H-imidazo[4,5-c]pyridine-4-carboxylate] | – | 6.5 nM | 36.2 nM | – | – | – | 4.8 % control
7 | O=C(C1c2ncn(-c3ccccn3)c2CCN1C(=O)c1cccc(C(F)(F)F)c1Cl)N1CCC1 (centres unmarked) [Example 35, 4-(Azetidin-1-ylcarbonyl)-5-{[2-chloro-3-(trifluoromethyl)phenyl]carbonyl}-1-pyridin-2-yl-4,5,6,7-tetrahydro-1H-imidazo[4,5-c]pyridine] | – | 348 nM | 235 nM | – | – | – | –
8 | O=C(c1cccc(C(F)(F)F)c1Cl)N1CCc2c(nnn2-c2ccccc2)C1 [Example 61, 5-{[2-Chloro-3-(trifluoromethyl)phenyl]carbonyl}-1-phenyl-4,5,6,7-tetrahydro-1H-[1,2,3]triazolo[4,5-c]pyridine] | – | 2.7 nM | 1870 nM | – | – | – | −0.1 % control
9 | O=C(c1cccc(C(F)(F)F)c1F)N1CCc2c(nnn2-c2ncccn2)C1 [Example 66, 5-{[2-Fluoro-3-(trifluoromethyl)phenyl]carbonyl}-1-pyrimidin-2-yl-4,5,6,7-tetrahydro-1H-[1,2,3]triazolo[4,5-c]pyridine] | 2.7 % control | 22.4 nM | 258 nM | – | – | – | –
10 | O=C(c1cccc(Cl)c1Cl)N1CCc2c(nnn2-c2ncccn2)C1 [Example 67, 5-[(2,3-Dichlorophenyl)carbonyl]-1-pyrimidin-2-yl-4,5,6,7-tetrahydro-1H-[1,2,3]triazolo[4,5-c]pyridine] | 6.5 % control | 2 nM | 53 nM | – | – | – | –
11 | Cc1cc(-n2nnc3c2CCN(C(=O)c2cccc(C(F)(F)F)c2Cl)C3C)ncn1 (centres unmarked) [Example 402, (2-chloro-3-(trifluoromethyl)phenyl)(4-methyl-1-(6-methylpyrimidin-4-yl)-6,7-dihydro-1H-[1,2,3]triazolo[4,5-c]pyridin-5(4H)-yl)methanone] | 0.3 % control | 879 nM | – | – | – | – | –

The next lines start with the values.

Row | PBMC 10 μM (% control) (human P2X7 [1]; test compound 10 μM) | IC50 (human P2X7 [2]; [3]) | IC50 (rat P2X7; [4]) | PBMC 10 μM (% control) (human P2X7 [1]; [5]) | IC50 (human P2X7 [2]; [6]) | IC50 (rat P2X7; [7]) | PBMC 1 μM (% control) (human P2X7 [1]) | Structure (SMILES)
12 | 2.0 % control | 1200 nM | 324 nM | – | – | – | – | Cc1c(C(=O)N2Cc3nnn(-c4ccn[nH]4)c3C[C@@H]2C)cccc1C(F)(F)F (single isomer, unassigned) [Example 347, (S*)-(6-methyl-1-(1H-pyrazol-3-yl)-6,7-dihydro-1H-[1,2,3]triazolo[4,5-c]pyridin-5(4H)-yl)(2-methyl-3-(trifluoromethyl)phenyl)methanone]
13 | 1.3 % control | 1630 nM | 8730 nM | – | – | – | – | Cc1cc(-n2nnc3c2CCN(C(=O)c2ccnc(C(F)(F)F)c2Cl)[C@H]3C)ncc1F (single isomer, unassigned) [Example 372, (S*)-(3-chloro-2-(trifluoromethyl)pyridin-4-yl)(1-(5-fluoro-4-methylpyridin-2-yl)-4-methyl-6,7-dihydro-1H-[1,2,3]triazolo[4,5-c]pyridin-5(4H)-yl)methanone]
14 | – | – | – | −9.6 % control | 14.4 nM | 3.1 nM | – | C[C@H]1Cc2c(nnn2-c2cc[nH]n2)CN1C(=O)c1ccnc(C(F)(F)F)c1Cl (single isomer, unassigned) [Example 422, (S*)-(3-chloro-2-(trifluoromethyl)pyridin-4-yl)(6-methyl-1-(1H-pyrazol-3-yl)-6,7-dihydro-1H-[1,2,3]triazolo[4,5-c]pyridin-5(4H)-yl)methanone]
15 | – | – | – | −11.2 % control | 14 nM | 4.6 nM | – | C[C@H]1Cc2c(nnn2-c2cc[nH]n2)CN1C(=O)c1ccnc(C(F)(F)F)c1F (single isomer, unassigned) [Example 424, (S*)-(3-fluoro-2-(trifluoromethyl)pyridin-4-yl)(6-methyl-1-(1H-pyrazol-3-yl)-6,7-dihydro-1H-[1,2,3]triazolo[4,5-c]pyridin-5(4H)-yl)methanone]
16 | – | 23.3 nM | 26.2 nM | – | – | – | 2.9 % control | CCOC(=O)C1c2ncn(-c3ccccn3)c2CCN1C(=O)c1cccc(C(F)(F)F)c1Cl (centres unmarked) [Example 24, Ethyl 5-(2-chloro-3-(trifluoromethyl)benzoyl)-1-(pyridin-2-yl)-4,5,6,7-tetrahydro-1H-imidazo[4,5-c]pyridine-4-carboxylate]
17 | – | 62 nM | 2500 nM | – | – | – | – | CCOC(=O)C1c2ncn(-c3cnccn3)c2CCN1C(=O)c1cccc(Cl)c1Cl (centres unmarked) [Example 29, Ethyl 5-[(2,3-dichlorophenyl)carbonyl]-1-pyrazin-2-yl-4,5,6,7-tetrahydro-1H-imidazo[4,5-c]pyridine-4-carboxylate]
18 | – | 39.4 nM | 210 nM | – | – | – | – | O=C(c1cccc(C(F)(F)F)c1Cl)N1CCc2c(nnn2-c2ccn[nH]2)C1 [Example 68, 5-{[2-Chloro-3-(trifluoromethyl)phenyl]carbonyl}-1-(1H-pyrazol-5-yl)-4,5,6,7-tetrahydro-1H-[1,2,3]triazolo[4,5-c]pyridine]
